US10597388B2, “Pyridazinone herbicides” (FMC CORPORATION, priority 2014, dated 2020)

Tests used:
Assay in all cases: Test D controlled growth environment herbicide test, pre- and postemergence
Format in all cases: in vivo
[1] = system: barley, spring (spring barley, Hordeum vulgare)
Text: (§1) Seeds of plant species selected from bluegrass (annual bluegrass, Poa annua), blackgrass (Alopecurus myosuroides), Canada thistle (Cirsium arvense), canarygrass (Phalaris minor), chickweed (common chickweed, Stellaria media), geranium, cutleaf (cutleaf geranium, Geranium dissectum), galium (catchweed bedstraw, Galium aparine), bromegrass, downy (downy bromegrass, Bromus tectorum), field poppy (Papaver rhoeas), field violet (Viola arvensis), foxtail, green (green foxtail, Setaria viridis), deadnettle (henbit deadnettle, Lamium amplexicaule), ryegrass, Italian (Italian ryegrass, Lolium multiflorum), kochia (Kochia scoparia), lambsquarters (Chenopodium album), oilseed rape (Brassica napus), pigweed (Amaranthus retroflexus), chamomile (scentless chamomile, Matricaria inodora), Russian thistle (Salsola kali), speedwell (bird's-eye speedwell, Veronica persica), barley, spring (spring barley, Hordeum vulgare), wheat, spring (spring wheat, Triticum aestivum), buckwheat, wild (wild buckwheat, Polygonum convolvulus), mustard, wild (wild mustard, Sinapis arvensis), oat, wild (wild oat, Avena fatua), radish, wild (wild radish, Raphanus raphanistrum), windgrass (Apera spica-venti), barley, winter (winter barley, Hordeum vulgare), and wheat, winter (winter wheat, Triticum aestivum) were planted into a silt loam soil and treated preemergence with test chemicals formulated in a non-phytotoxic solvent mixture which included a surfactant.
(§2) At the same time, these species were planted in pots containing Redi-Earth® planting medium (Scotts Company, 14111 Scottslawn Road, Marysville, Ohio 43041) comprising spaghnum peat moss, vermiculite, wetting agent and starter nutrients and treated with postemergence applications of the test chemicals formulated in the same manner. Plants ranged in height from 2 to 18 cm (1- to 4-leaf stage). Treated plants and controls were maintained in a controlled growth environment for 14 to 21 d after which time all species were compared to controls and visually evaluated. Plant response ratings, summarized in Table D, are based on a scale of 0 to 100 where 0 is no effect and 100 is complete control. A dash (-) response means no test result.

[2] = system: barley, winter (winter barley, Hordeum vulgare)
Text: as §1, §2

[3] = system: bluegrass (annual bluegrass, Poa annua)
Text: as §1, §2

[4] = system: canarygrass (Phalaris minor)
Text: as §1, §2

[5] = system: chickweed (common chickweed, Stellaria media)
Text: as §1, §2

[6] = system: deadnettle (henbit deadnettle, Lamium amplexicaule)
Text: as §1, §2

[7] = system: field poppy (Papaver rhoeas)
Text: as §1, §2

[8] = system: foxtail, green (green foxtail, Setaria viridis)
Text: as §1, §2

[9] = system: mustard, wild (wild mustard, Sinapis arvensis)
Text: as §1, §2

[10] = system: radish, wild (wild radish, Raphanus raphanistrum)
Text: as §1, §2

[11] = system: ryegrass, Italian (Italian ryegrass, Lolium multiflorum)
Text: as §1, §2

[12] = system: wheat, winter (winter wheat, Triticum aestivum)
Text: as §1, §2

[13] = system: windgrass (Apera spica-venti)
Text: as §1, §2

[14] = Postemergence, 31 g ai/ha, scale 0 to 100 (0 no effect, 100 complete control)
[15] = Postemergence, 125 g ai/ha, visual rating on scale 0 (no effect) to 100 (complete control), 14 to 21 d
[16] = Postemergence, 250 g ai/ha, scale 0 to 100 (0 no effect, 100 complete control)
[17] = Preemergence, 62 g ai/ha, scale 0 to 100 (0 no effect, 100 complete control)
[18] = Preemergence, 125 g ai/ha, scale 0 to 100 (0 no effect, 100 complete control)
[19] = Preemergence, 250 g ai/ha, scale 0 to 100 (0 no effect, 100 complete control)
[20] = postemergence, 62 g ai/ha, scale 0 to 100, 0 no effect, 100 complete control

C#CCOC(=O)Oc1c(C)nn(C)c(=O)c1-c1c(C)sc2ccc(C)cc12 [Compound 87]
Barley, Spring plant response rating [1, 14]: 0 | Plant response rating, Barley, Spring [1, 15]: 0 | Plant response rating, Barley, Spring [1, 16]: 5 | Plant response rating (scale of 0 to 100), Barley, Spring ([1]; Preemergence, 31 g ai/ha): 0 | Plant response rating, Barley, Spring [1, 17]: 0 | Plant response rating, Barley, Spring [1, 18]: 0 | Plant response rating, Barley, Spring [1, 19]: 5 | Plant response rating, Barley, Spring [1, 20]: 0 | Barley, Winter plant response rating [2, 14]: 0 | Plant response rating, Barley, Winter [2, 15]: 5 | Plant response rating, Barley, Winter [2, 16]: 5 | Plant response rating (scale of 0 to 100), Barley, Winter ([2]; Preemergence, 31 g ai/ha): 0 | Plant response rating, Barley, Winter [2, 17]: 0 | Plant response rating, Barley, Winter [2, 18]: 10 | Plant response rating, Barley, Winter [2, 19]: 25 | Plant response rating, Barley, Winter [2, 20]: 0 | Bluegrass plant response rating [3, 14]: 25 | Plant response rating, Bluegrass [3, 15]: 45 | Plant response rating, Bluegrass [3, 16]: 45 | Plant response rating (scale of 0 to 100), Bluegrass ([3]; Preemergence, 31 g ai/ha): 25 | Plant response rating, Bluegrass [3, 17]: 35 | Plant response rating, Bluegrass [3, 18]: 45 | Plant response rating, Bluegrass [3, 19]: 70 | Plant response rating, Bluegrass [3, 20]: 25 | Canarygrass plant response rating [4, 14]: 55 | Plant response rating, Canarygrass [4, 15]: 85 | Plant response rating, Canarygrass [4, 16]: 90 | Plant response rating (scale of 0 to 100), Canarygrass ([4]; Preemergence, 31 g ai/ha): 85 | Plant response rating (scale of 0 to 100), Canarygrass ([4]; Preemergence, 62 g ai/ha): 90 | Plant response rating, Canarygrass [4, 18]: 90 | Plant response rating, Canarygrass [4, 19]: 95 | Plant response rating, Canarygrass [4, 20]: 80 | Chickweed plant response rating [5, 14]: 85 | Plant response rating, Chickweed [5, 15]: 100 | Plant response rating, Chickweed [5, 16]: 100 | Plant response rating (scale of 0 to 100), Chickweed ([5]; Preemergence, 31 g ai/ha): 100 | Plant response rating (scale of 0 to 100), Chickweed ([5]; Preemergence, 62 g ai/ha): 100 | Plant response rating, Chickweed [5, 18]: 100 | Plant response rating, Chickweed [5, 19]: 100 | Plant response rating, Chickweed [5, 20]: 90 | Deadnettle plant response rating [6, 14]: 10 | Plant response rating, Deadnettle [6, 15]: 35 | Plant response rating, Deadnettle [6, 16]: 60 | Plant response rating (scale of 0 to 100), Deadnettle ([6]; Preemergence, 31 g ai/ha): 25 | Plant response rating (scale of 0 to 100), Deadnettle ([6]; Preemergence, 62 g ai/ha): 35 | Plant response rating, Deadnettle [6, 18]: 65 | Plant response rating, Deadnettle [6, 19]: 70 | Plant response rating, Deadnettle [6, 20]: 15 | Field Poppy plant response rating [7, 14]: 70 | Plant response rating, Field Poppy [7, 15]: 85 | Plant response rating, Field Poppy [7, 16]: 100 | Plant response rating (scale of 0 to 100), Field Poppy ([7]; Preemergence, 31 g ai/ha): 100 | Plant response rating (scale of 0 to 100), Field Poppy ([7]; Preemergence, 62 g ai/ha): 100 | Plant response rating, Field Poppy [7, 18]: 100 | Plant response rating, Field Poppy [7, 19]: 100 | Plant response rating, Field Poppy [7, 20]: 85 | Foxtail, Green plant response rating [8, 14]: 70 | Plant response rating, Foxtail, Green [8, 15]: 80 | Plant response rating, Foxtail, Green [8, 16]: 90 | Plant response rating (scale of 0 to 100), Foxtail, Green ([8]; Preemergence, 31 g ai/ha): 10 | Plant response rating (scale of 0 to 100), Foxtail, Green ([8]; Preemergence, 62 g ai/ha): 55 | Plant response rating, Foxtail, Green [8, 18]: 95 | Plant response rating, Foxtail, Green [8, 19]: 95 | Plant response rating, Foxtail, Green [8, 20]: 75 | Mustard, Wild plant response rating [9, 14]: 10 | Plant response rating, Mustard, Wild [9, 15]: 25 | Plant response rating, Mustard, Wild [9, 16]: 60 | Plant response rating (scale of 0 to 100), Mustard, Wild ([9]; Preemergence, 31 g ai/ha): 0 | Plant response rating (scale of 0 to 100), Mustard, Wild ([9]; Preemergence, 62 g ai/ha): 0 | Plant response rating, Mustard, Wild [9, 18]: 0 | Plant response rating, Mustard, Wild [9, 19]: 25 | Plant response rating, Mustard, Wild [9, 20]: 35 | Radish, Wild plant response rating [10, 14]: 15 | Plant response rating, Radish, Wild [10, 15]: 30 | Plant response rating, Radish, Wild [10, 16]: 60 | Plant response rating (scale of 0 to 100), Radish, Wild ([10]; Preemergence, 31 g ai/ha): 45 | Plant response rating (scale of 0 to 100), Radish, Wild ([10]; Preemergence, 62 g ai/ha): 65 | Plant response rating, Radish, Wild [10, 18]: 75 | Plant response rating, Radish, Wild [10, 19]: 95 | Plant response rating, Radish, Wild [10, 20]: 20 | Ryegrass, Italian plant response rating [11, 14]: 90 | Plant response rating, Ryegrass, Italian [11, 15]: 95 | Plant response rating, Ryegrass, Italian [11, 16]: 98 | Plant response rating (scale of 0 to 100), Ryegrass, Italian ([11]; Preemergence, 31 g ai/ha): 90 | Plant response rating (scale of 0 to 100), Ryegrass, Italian ([11]; Preemergence, 62 g ai/ha): 95 | Plant response rating, Ryegrass, Italian [11, 18]: 98 | Plant response rating, Ryegrass, Italian [11, 19]: 98 | Plant response rating, Ryegrass, Italian [11, 20]: 95 | Wheat, Winter plant response rating [12, 14]: 0 | Plant response rating, Wheat, Winter [12, 15]: 0 | Plant response rating, Wheat, Winter [12, 16]: 5 | Plant response rating (scale of 0 to 100), Wheat, Winter ([12]; Preemergence, 31 g ai/ha): 0 | Plant response rating (scale of 0 to 100), Wheat, Winter ([12]; Preemergence, 62 g ai/ha): 0 | Plant response rating, Wheat, Winter [12, 18]: 0 | Plant response rating, Wheat, Winter [12, 19]: 15 | Plant response rating, Wheat, Winter [12, 20]: 0 | Windgrass plant response rating [13, 14]: 80 | Plant response rating, Windgrass [13, 15]: 85 | Plant response rating, Windgrass [13, 16]: 100 | Plant response rating (scale of 0 to 100), Windgrass ([13]; Preemergence, 31 g ai/ha): 80 | Plant response rating (scale of 0 to 100), Windgrass ([13]; Preemergence, 62 g ai/ha): 80 | Plant response rating, Windgrass [13, 18]: 85 | Plant response rating, Windgrass [13, 19]: 100 | Plant response rating, Windgrass [13, 20]: 85
